In patent US8404866B2, “Substituted heterocyclic mercaptosulfonamide metalloprotease inhibitors” (Florida State University Research Foundation, priority 2008, dated 2013) one finds IC50 and Ki data, which are given here for nine compounds.

The target in experiment [1] is T1, MMP-1 (HFC; human fibroblast collagenase) (Homo sapiens, UniProt P03956).
T1 sequence (P03956 100-469): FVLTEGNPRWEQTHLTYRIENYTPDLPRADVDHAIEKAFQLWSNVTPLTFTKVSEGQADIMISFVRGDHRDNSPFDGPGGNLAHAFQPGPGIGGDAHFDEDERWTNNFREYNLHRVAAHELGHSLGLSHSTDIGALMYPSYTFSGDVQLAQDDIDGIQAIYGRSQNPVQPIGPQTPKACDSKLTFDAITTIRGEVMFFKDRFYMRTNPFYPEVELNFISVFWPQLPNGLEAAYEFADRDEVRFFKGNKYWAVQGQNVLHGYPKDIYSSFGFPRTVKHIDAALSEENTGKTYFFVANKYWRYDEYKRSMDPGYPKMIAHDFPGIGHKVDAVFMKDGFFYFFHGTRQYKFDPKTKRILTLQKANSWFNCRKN
Briefly: Enzyme kinetic assay, inhibition of MMP-1. Conditions: for IC50: 25° C., pH 7.5, substrate 1 μM, read-out: IC50 (value without parentheses), HFC MMP-1; for Ki: read-out: Ki (value in parentheses), HFC MMP-1. The format is biochemical. From the text:
(§1) The following protocol was used to obtain the data found in the following table. Materials: The fluorescent peptide substrates for matrix metalloproteinases (MMPs) used were purchased from Bachem Chem. Co. The metal salts and Brij-35 were purchased from Fisher Scientific Inc. All other chemicals were purchased from Sigma-Aldrich Chem. Co. The sources and biochemical characterizations of multiple MMPs, including MMP-1/human fibroblast collagenase (HFC), MMP-2/human fibroblast gelatinase (HFG), MMP-8/human neutrophil collagenase (HNC), and MMP-9/human neutrophil gelatinase (HNG), MMP-7/human matrilysin (MLN), MMP-3/human fibroblast stromelysin-1 (HFS), human recombinant catalytic domain of membrane-type 1 matrix metalloproteinase (cdMT1-MMP), catalytic domain of MMP-12/metalloelastase (cdMET), and MMP-26/human endometase (EDM) were described previously (Sang, Q. X., Birkedal-Hansen, H., and Van Wart, H. E. Proteolytic and non-proteolytic activation of human neutrophil progelatinase B. Biochim. Biophys. Acta. 1995; 1251, 99-108; Sang, Q. A., Bodden, M. K., and Windsor, L. J. Activation of human progelatinase A by collagenase and matrilysin: activation of procollagenase by matrilysin. J. Protein. Chem. 1996; 15, 243-253; Li, H., Bauzon, D. E., Xu, X., Tschesche, H., Cao, J., and Sang, Q.-X. A. Immunological characterization of cell-surface and soluble forms of membrane type 1 matrix metalloproteinase in human breast cancer cells and in fibroblasts. Molec. Carcinog. 1998; 22, 84-94; Park, H. I., Ni, J., Gerkema, F. E., Liu, D., Belozerov, V. E., and Sang, Q.-X. A. Identification and characterization of human endometase (Matrix metalloproteinase-26) from endometrial tumor. J. Biol. Chem., 2000; 275, 20540-20544). The active concentrations of MMPs were determined by titration with GM6001, a tight-binding MMP inhibitor, as described previously (Park, H. I., Turk, B. E., Gerkema, F. E., Cantley, L. C., and Sang, Q.-X. A. Peptide substrate specificities and protein cleavage sites of human endometase/matrilysin-2/matrix metalloproteinase-26. J. Biol. Chem. 2002; 277, 35168-35175).
(§2) The active inhibitor concentrations were estimated by titrating the mercapto group with 5,5′-dithiobis(2-nitrobenzoic acid) (DTNB; Ellman's reagent) as described previously (Ellman, G. L. A colorimetric method for determining low concentrations of mercaptans. Arch. Biochem. Biophys. 1958; 74, 443-450; Ellman, G. L. Tissue sulfhydryl groups. Arch. Biochem. Biophys. 1959; 82, 70-77; Riddles, P. W., Blakeley, R. L., and Zerner, B. Ellman's reagent: 5,5′-dithiobis(2-nitrobenzoic acid)—a reexamination. Anal. Biochem. 1979; 94, 75-81). Briefly, the reaction of DTNB with the mercapto group produces 2-nitro-5-thiobenzoic acid (TNB). The concentration of TNB is then measured by monitoring the absorbance at 412 nm. Cysteine was used to generate the standard curve with a molar extinction coefficient of 14,000±500 M^−1 cm^−1, which is close to the value in the literature (Riddles, P. W., Blakeley, R. L., and Zerner, B. Ellman's reagent: 5,5′-dithiobis(2-nitrobenzoic acid)—a reexamination. Anal. Biochem. 1979; 94, 75-81).
(§3) The substrate Mca-PLGLDpaAR-NH2 was used to measure inhibition constants (Knight, C. G., Willenbrock. F., and Murphy, G. A novel coumarin-labelled peptide for sensitive continuous assays of the matrix metalloproteinases. FEBS Lett. 1992; 296, 263-266). Enzymatic assays were performed at 25° C. in 50 mM HEPES buffer at pH 7.5 in the presence of 10 mM CaCl2, 0.2 M NaCl, and 0.01% or 0.05% Brij-35 with substrate concentrations of 1 μM. The release of product was monitored by measuring fluorescence (excitation and emission wavelengths of 328 nm and 393 nm, respectively) with a Perkin Elmer Luminescence Spectrophotometer LS 50B connected to a temperature controlled water bath. All stock solutions of inhibitors were in dimethyl sulfoxide. […]

For experiment [2], the target named is T2, MMP-2 (HFG; human fibroblast gelatinase) (Homo sapiens, UniProt P08253).
T2 sequence (P08253 110-660): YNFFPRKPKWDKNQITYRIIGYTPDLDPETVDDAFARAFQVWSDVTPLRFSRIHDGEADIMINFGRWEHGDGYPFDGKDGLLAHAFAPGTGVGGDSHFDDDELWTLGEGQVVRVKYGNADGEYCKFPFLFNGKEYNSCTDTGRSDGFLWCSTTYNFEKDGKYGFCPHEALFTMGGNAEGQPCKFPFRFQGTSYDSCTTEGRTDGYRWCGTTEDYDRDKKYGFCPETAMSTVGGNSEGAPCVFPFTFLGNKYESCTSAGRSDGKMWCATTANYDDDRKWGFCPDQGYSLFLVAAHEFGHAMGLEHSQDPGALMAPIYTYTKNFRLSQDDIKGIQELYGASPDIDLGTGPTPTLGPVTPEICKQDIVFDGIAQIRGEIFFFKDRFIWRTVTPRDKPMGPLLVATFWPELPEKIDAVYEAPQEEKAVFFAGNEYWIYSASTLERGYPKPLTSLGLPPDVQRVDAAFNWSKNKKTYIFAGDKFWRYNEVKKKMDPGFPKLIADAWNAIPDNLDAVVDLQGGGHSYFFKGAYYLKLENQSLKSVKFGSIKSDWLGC
Briefly: Enzyme kinetic assay, inhibition of MMP-2. The format is biochemical. Conditions: read-out: Ki (value in parentheses), HFG MMP-2.
Description: as §1, §2, §3

The structures appear in SMILES notation. Where a name gives a salt, the structure may show the parent alone. Where only a bound is given, the exact number is not on record here.

The term IC50 denotes the point on the concentration scale where inhibition reaches its midpoint. For orientation: Ki means a measure of affinity in units of concentration, obtained from inhibition or displacement. Consider `O=C(OCc1ccccc1)N1C[C@H](NS(=O)(=O)c2ccc(-c3ccccc3)cc2)[C@@H](S)C1` (racemic) [Example 6, (±)-N-(Benzyloxycarbonyl)-trans-3-(4-phenylbenzenesulfonamido)-4-mercaptopyrrolidine], for which the IC50 in experiment [1] was above 130 µM. Moreover, the Ki in experiment [2] worked out at 78 nM.

In the case of `NC(=O)N1C[C@H](NS(=O)(=O)c2ccc(Oc3ccccc3)cc2)[C@@H](S)C1` (racemic) [Example 1, (±)-N-Carbamoyl-trans-3-(4-phenoxybenzenesulfonamido)-4-mercaptopyrrolidine], the Ki in experiment [1] is 4100 nM; in experiment [2] it was 3.9 nM.

With `CC(=O)NCCCCCC(=O)N1C[C@H](NS(=O)(=O)c2ccc(Oc3ccccc3)cc2)[C@@H](S)C1` (racemic) [Example 8, (±)-N-(6-Acetamidohexanoyl)-trans-3-(4-phenoxy-benzenesulfonamido)-4-mercaptopyrrolidine], the IC50 in experiment [1] was above 6 µM. In addition, in experiment [2], the Ki came to 3.8 nM.

Consider `O=C(OCc1ccccc1)N1C[C@H](NS(=O)(=O)c2ccc(Oc3ccccc3)cc2)[C@@H](S)C1` (racemic) [Example 5, (±)-N-(Benzyloxycarbonyl)-trans-3-(4-phenoxybenzenesulfonamido)-4-mercaptopyrrolidine], for which, in experiment [1], the IC50 was above 12.5 µM. The Ki in experiment [2] is 24 nM.

Consider `O=C(NCCN1C(=O)c2ccccc2C1=O)N1C[C@H](NS(=O)(=O)c2ccc(Oc3ccccc3)cc2)[C@@H](S)C1` (racemic) [Example 2, (±)-N-(2-Phthalimidoethylaminocarbonyl)-trans-3-(4-phenoxybenzenesulfonamido)-4-mercaptopyrrolidine], for which the Ki was determined as 2800 nM in experiment [1] and 35 nM in experiment [2].

`NCCCCCC(=O)N1C[C@H](NS(=O)(=O)c2ccc(Oc3ccccc3)cc2)[C@@H](S)C1` (racemic) [Example 7, (±)-N-(6-Aminohexanoyl)-trans-3-(4-phenoxybenzene-sulfonamido)-4-mercaptopyrrolidine Hydrochloride]: the IC50 in experiment [1] is above 3 µM. The inhibition constant Ki in experiment [2] was 2.2 nM.

Turning to `O=S(=O)(N[C@H]1CNC[C@@H]1S)c1ccc(Oc2ccccc2)cc1` (racemic) [Example 3, (±)-trans-3-(4-Phenoxybenzenesulfonamido)-4-mercaptopyrrolidine Hydrochloride], the IC50 in experiment [1] was around 25 µM. In addition, the inhibition constant (Ki) in experiment [2] worked out at 27 nM.

As for `CC(=O)NCCCCCC(=O)N1C[C@H](NS(=O)(=O)c2ccc(-c3ccccc3)cc2)[C@@H](S)C1` (racemic) [Example 9, (±)-N-(6-Acetamidohexanoyl)-trans-3-(4-phenylbenzene-sulfonamido)-4-mercaptopyrrolidine], the IC50 in experiment [1] was above 6 µM. The Ki in experiment [2] worked out at 63 nM.

Take `CN([C@H]1CN(C(N)=O)C[C@@H]1S)S(=O)(=O)c1ccc(Oc2ccccc2)cc1` (racemic) [Example 4, (±)-N-Carbamoyl-trans-3-(N-methyl-4-phenoxybenzenesulfonamido)-4-mercaptopyrrolidine]: the Ki in experiment [1] was 850 nM; in experiment [2], 2.3 nM.
